Measurements published in ChEMBL document CHEMBL1127992, “Novel conformationally restricted aromatic piperidines as selective sigma receptor ligands” (Bioorg Med Chem Lett, 1994).

Tests used:
[1] = target: Serotonin 2 (5-HT2) receptor (Homo sapiens, UniProt P41595+P28223+P28335); test: Displacement of [3H]ketanserin from 5-hydroxytryptamine 2 receptor; type: protein assay
[2] = target: D(2) dopamine receptor (Homo sapiens, UniProt P14416); test: Displacement of [3H]-spiperone from dopamine D2 receptor
D(2) dopamine receptor, sequence (P14416 whole entry): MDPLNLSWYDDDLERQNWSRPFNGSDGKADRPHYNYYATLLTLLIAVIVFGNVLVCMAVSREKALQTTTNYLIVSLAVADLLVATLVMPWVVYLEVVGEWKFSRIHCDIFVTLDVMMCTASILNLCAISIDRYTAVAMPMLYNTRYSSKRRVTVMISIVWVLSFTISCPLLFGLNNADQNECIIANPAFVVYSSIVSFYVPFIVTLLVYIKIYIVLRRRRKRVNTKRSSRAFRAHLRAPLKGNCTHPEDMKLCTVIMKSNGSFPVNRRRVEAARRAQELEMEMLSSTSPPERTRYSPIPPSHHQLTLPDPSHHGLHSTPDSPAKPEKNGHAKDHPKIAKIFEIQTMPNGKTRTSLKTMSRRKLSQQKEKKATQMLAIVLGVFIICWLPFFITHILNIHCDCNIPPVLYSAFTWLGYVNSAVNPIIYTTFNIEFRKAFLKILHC

SMILES	Ki [1]	IC50 [2]
C(=C\c1ccccc1)/CNC1CCN(Cc2ccccc2)CC1.O=C(O)/C=C/C(=O)O	4600 nM	> 10 µM
CN(C(=O)C#Cc1ccccc1)C1CCN(Cc2ccccc2)CC1.O=C(O)/C=C/C(=O)O	1700 nM	4.9 µM
CN(C/C=C/c1ccccc1)C1CCN(Cc2ccccc2)CC1.O=C(O)/C=C/C(=O)O	840 nM	> 10 µM
CN(CC#Cc1ccccc1)C1CCN(Cc2ccccc2)CC1.O=C(O)/C=C/C(=O)O	320 nM	4.1 µM
C(#Cc1ccccc1)CN(c1ccccc1)C1CCN(Cc2ccccc2)CC1.O=C(O)/C=C/C(=O)O	280 nM	0.89 µM
O=C(C#Cc1ccccc1)NC1CCN(Cc2ccccc2)CC1.O=C(O)/C=C/C(=O)O	280 nM	2.5 µM
C(=C\c1ccccc1)/CN(c1ccccc1)C1CCN(Cc2ccccc2)CC1.O=C(O)/C=C/C(=O)O	> 10000 nM	> 10 µM
C(#Cc1ccccc1)CNC1CCN(Cc2ccccc2)CC1.O=C(O)/C=C/C(=O)O	3300 nM	> 10 µM
O=C(/C=C/c1ccccc1)NC1CCN(Cc2ccccc2)CC1.O=C(O)/C=C/C(=O)O	100 nM	4.7 µM
C(=C\c1ccccc1)/CN(C/C=C/c1ccccc1)C1CCN(Cc2ccccc2)CC1.O=C(O)/C=C/C(=O)O	550 nM	> 10 µM
CN(C(=O)/C=C/c1ccccc1)C1CCN(Cc2ccccc2)CC1.O=C(O)/C=C/C(=O)O	1500 nM	7.1 µM
